Consider 3 compounds from patent US20120264928A1, “THERAPEUTIC PHARMACEUTICAL AGENT FOR DISEASES ASSOCIATED WITH DECREASE IN FUNCTION OF GNE PROTEIN, FOOD COMPOSITION, AND FOOD ADDITIVE” (JAPAN HEALTH SCIENCES FOUNDATION, priority 2009, published 2012).

For series [1] the following is noted: in vivo; cited from earlier work.
The conditions of series [2]: administration of free N-acetylneuraminic acid; cited from earlier work.
In series [3] the test system is cells of animals having GNE gene mutation and normal animals. The following applies: cited from earlier work.
In series [4] the test system is primary cultured cells of myotubes derived from the DMRV model mice. As to the kind of experiment: Amount of NeuAc by HPLC in myotubes from DMRV model mice. Format: cell-based. The following applies: 10 mM ManNAc, three days; compared with control group (10 mM Glc). Here is the method:
The skeletal muscle tissues collected from the DMRV human patients or the model mice were lightly washed with PBS or Hank's balanced saline and were treated with 0.25% trypsin for 5 minutes. The tissues were finely cut into several millimeters with ophthalmic scissors, were digested with 0.4% collagenase II/0.25% trypsin at 37° C. for 30 minutes, and were left still to collect supernatant. The precipitate was again treated with the enzyme liquid. After being left still, the precipitate was well suspended in a DMEM-Ham's F-12 culture medium. The tissue suspension was passed through a nylon mesh to remove the tissues. The washings and the supernatant were centrifuged to collect cells. […]
In the case that the sample was cultured cells, the cells were washed with PBS three times, and 400 p. […] The fluorescent derivative thus prepared was analyzed with HPLC (JASCO Corp.) using 0.05 to 5 nmol/μl Neu5Ac and Neu5Gc standards. The amount of protein from the tissue was measured with a Bio-Rad Protein Assay kit (Bio-Rad Laboratories).
ManNAc or Ac5GlcNAcol was added to the culture media of primary cultured cells of myotubes derived from the DMRV model mice such that the final concentration of ManNAc was 10 mM and the final concentration of Ac5GlcNAcol was […]. […] The amount of NeuAc in the cultured cells was measured by the HPLC method described above (N=3).

Series [5] relates to primary cultured cells of myotubes. The experiment in a line: Cytotoxicity of reagent in myotube culture. The series is classed as cell-based. The note with it: high concentration.

Turning to `CC(=O)N[C@H]1[C@H]([C@H](O)[C@H](O)CO)OC(O)(C(=O)O)C[C@@H]1O` (some centres unmarked) [NeuAc, N-acetylneuraminic acid], the “half-life in the blood of animals” value in series [1] is listed as “very short”. For the same compound, in series [2], the “effect of increasing N-acetylneuraminic acid in ganglioside” value was “no particular effect”. In addition, the incorporation into cells entry in series [3] is recorded as “difficult to incorporate into cells”. `CC(=O)N[C@@H]1C(O)O[C@H](CO)[C@@H](O)[C@@H]1O` (some centres unmarked) [ManNAc, N-acetylmannosamine, reference compound]: the “amount of NeuAc in the myotubes” value in series [4] is recorded as “increased the amount of NeuAc”. On to `CC(=O)N[C@@H]1C(OC(C)=O)O[C@H](COC(C)=O)[C@@H](OC(C)=O)[C@@H]1OC(C)=O` (some centres unmarked) [Ac4ManNAc, Tetra-O-acetyl-N-acetylmannosamine], for which the cytotoxicity entry in series [5] is “has cytotoxicity when the Ac4ManNAc concentration is high”.
